Test results as given in BindingDB's records for doi:10.1021/jm0209984 (Universit&#224, 2003).

Assay: Concentration required to achieve 50% protection of MT-4 cell from the HIV-1 induced cytopathogenicity was determined by the MTT method

**Q.** Which EC50 does the source give for O=C(c1ccc(Cl)cc1Cl)N(C(=S)OCCOc1ccccc1)c1ccccc1 [(2,4-Dichloro-benzoyl)-phenyl-thiocarbamic acid O-(2-phenoxy-ethyl) ester] here?
**A.** The EC50 was 11.6 µM.

**Q.** Which EC50 does the source give for CC(COc1ccccc1)OC(=S)N(C(=O)c1ccccc1)c1ccccc1 (stereo not drawn) [Benzoyl-phenyl-thiocarbamic acid O-(1-methyl-2-phenoxy-ethyl) ester] here?
**A.** Its EC50 is 1.3 µM.

**Q.** For CCCCOC(=O)N(C(=S)OC(C)COc1ccccc1)c1ccccc1 (stereo not drawn) [O-butyl O-(1-methyl-2-phenoxyethyl) phenylimidothiodicarbonate], which EC50 is on record?
**A.** The EC50 was 47 µM.

**Q.** For O=C(c1ccc(Cl)cc1)N(C(=S)OCCc1ccccc1)c1ccccc1 [(4-Chloro-benzoyl)-phenyl-thiocarbamic acid O-phenethyl ester], which EC50 is on record?
**A.** The EC50 was 4 µM.

**Q.** With O=C1c2ccccc2C(=O)N1CCOC(=S)N(C(=O)c1ccccc1)c1ccc(Cl)cc1 [O-2-(1,3-dioxoisoindolin-2-yl)ethyl benzoyl(4-chlorophenyl)carbamothioate] as the compound, how does the EC50 read?
**A.** The EC50 was 0.1 µM.

**Q.** For CC(COc1ccccc1)OC(=S)N(C(=O)c1cccs1)c1ccc(Cl)cc1 (stereo not drawn) [(4-Chloro-phenyl)-(thiophene-2-carbonyl)-thiocarbamic acid O-(1-methyl-2-phenoxy-ethyl) ester], which EC50 is on record?
**A.** Its EC50 is 11 µM.

**Q.** With O=C1c2ccccc2C(=O)N1CCOC(=S)N(C(=O)c1cccs1)c1cccc(C(F)(F)F)c1 [(Thiophene-2-carbonyl)-(3-trifluoromethyl-phenyl)-thiocarbamic acid O-[2-(1,3-dioxo-1,3-dihydro-isoindol-2-yl)-ethyl] ester] as the compound, how does the EC50 read?
**A.** The EC50 was 11 µM.

**Q.** For O=C(c1ccco1)N(C(=S)OCCOc1ccccc1)c1ccccc1 [(Furan-2-carbonyl)-phenyl-thiocarbamic acid O-(2-phenoxy-ethyl) ester], which EC50 is on record?
**A.** Its EC50 is 8.4 µM.

**Q.** With CC(COc1ccccc1)OC(=S)N(C(=O)COc1ccccc1)c1ccccc1 (stereo not drawn) [(2-Phenoxy-acetyl)-phenyl-thiocarbamic acid O-(1-methyl-2-phenoxy-ethyl) ester] as the compound, how does the EC50 read?
**A.** Its EC50 is 1.4 µM.

**Q.** With O=C1c2ccccc2C(=O)N1CCOC(=S)N(C(=O)c1cccs1)c1ccc([N+](=O)[O-])cc1 [(4-Nitro-phenyl)-(thiophene-2-carbonyl)-thiocarbamic acid O-[2-(1,3-dioxo-1,3-dihydro-isoindol-2-yl)-ethyl] ester] as the compound, how does the EC50 read?
**A.** Its EC50 is 0.01 µM.

**Q.** With S=C(NCCc1ccccn1)Nc1ccc(Br)cn1 [N-(2-(2-Pyridylethyl))-N -(2-(5-bromopyridyl))thiourea] as the compound, how does the EC50 read?
**A.** The EC50 was 0.02 µM.

**Q.** With CC(=O)c1cccc(N(C(=O)c2cccs2)C(=S)OCCN2C(=O)c3ccccc3C2=O)c1 [(3-Acetyl-phenyl)-(thiophene-2-carbonyl)-thiocarbamic acid O-[2-(1,3-dioxo-1,3-dihydro-isoindol-2-yl)-ethyl] ester] as the compound, how does the EC50 read?
**A.** Its EC50 is 6 µM.

**Q.** With O=C(c1ccccc1)N(C(=S)OCCSc1ccccc1)c1ccccc1 [Benzoyl-phenyl-thiocarbamic acid O-(2-phenylsulfanyl-ethyl) ester] as the compound, how does the EC50 read?
**A.** Its EC50 is over 44 µM.
